Assay results from patent US20100167275A1, “Potassium channel mutants of the yeast Saccharomyces cerevisiae and their use for screening eukaryotic potassium channels” (sanofi-aventis Deutschland GmbH, priority 2000, published 2010).
“And” between values parts separate entries of the source, which are not always exact repeats. Identical values can stand only once. Like-named read-outs stand apart in the source and are kept apart here.

Experiments:
[1] = system: Saccharomyces cerevisiae wild-type strain; assay type: cell-based
Experimental: (§1) FIG. 9: Growth of the Saccharomyces cerevisiae wild-type strain in DPM-HIS/-TRP 5 mM KCl medium in 96-well ELISA plates in the presence of 0.5 mM CsCl. The various inhibitors were employed at a final concentration of in each case 30 μM. To measure the cell density, a commercially available LacZ reporter system pYX232 by Ingenius (cat. No. MBV-032-10) was transformed into the yeast strains to be studied. Expression of the LacZ reporter gene was under the control of the constitutive Saccharomyces cerevisiae promotor TPI for the triose phosphate isomerase gene. The LacZ enzyme activity was measured via detecting the luminescence after 24 hours' growth (density of the starter culture: 0.01 OD620) using a commercially available assay system by TROPIX.
The values correspond to the average of in each case 4 measurements±SD. The two different assays were carried out independently of each other on two different days.
(§2) All substances, dissolved in DMSO, were employed in a final concentration of 30 μM. As a control, cells were measured with the same final concentration of 0.5% DMSO without substance, without DMSO addition or without substance.

[2] = system: Saccharomyces cerevisiae wild-type strain; assay: Growth of wild-type strain in DPM medium with 5 mM or 80 mM KCl, OD 620 nm; assay type: cell-based; settings: 30 μM; for toxic effect on yeast cells (Saccharomyces cerevisiae): growth medium containing 80 mM KCl; for growth OD 620 nm, 5 mM KCl, measurement 1 / growth OD 620 nm, 5 mM KCl, measurement 2 / growth OD 620 nm, 5 mM KCl, measurement 3 / growth OD 620 nm, 5 mM KCl, measurement 4 / 5 mM KCl (average growth, OD 620 nm) / growth OD 620 nm, 80 mM KCl, measurement 1 / growth OD 620 nm, 80 mM KCl, measurement 2 / growth OD 620 nm, 80 mM KCl, measurement 3 / growth OD 620 nm, 80 mM KCl, measurement 4 / 80 mM KCl (average growth, OD 620 nm): wild-type cells, DPM, 24 hours growth, starting culture 0.01 OD; for 5 mM KCl (average growth, OD 620 nm) / 80 mM KCl (average growth, OD 620 nm): average of 4
Excerpt: However, the present results could not exclude that the inhibitory effect found for these substances can possibly also be attributed to an inhibition of other proteins which are essential for the growth of yeast cells. […]

[3] = target: human potassium channel HERG1 (Homo sapiens, UniProt Q12809)
human potassium channel HERG1, sequence (Q12809 whole entry): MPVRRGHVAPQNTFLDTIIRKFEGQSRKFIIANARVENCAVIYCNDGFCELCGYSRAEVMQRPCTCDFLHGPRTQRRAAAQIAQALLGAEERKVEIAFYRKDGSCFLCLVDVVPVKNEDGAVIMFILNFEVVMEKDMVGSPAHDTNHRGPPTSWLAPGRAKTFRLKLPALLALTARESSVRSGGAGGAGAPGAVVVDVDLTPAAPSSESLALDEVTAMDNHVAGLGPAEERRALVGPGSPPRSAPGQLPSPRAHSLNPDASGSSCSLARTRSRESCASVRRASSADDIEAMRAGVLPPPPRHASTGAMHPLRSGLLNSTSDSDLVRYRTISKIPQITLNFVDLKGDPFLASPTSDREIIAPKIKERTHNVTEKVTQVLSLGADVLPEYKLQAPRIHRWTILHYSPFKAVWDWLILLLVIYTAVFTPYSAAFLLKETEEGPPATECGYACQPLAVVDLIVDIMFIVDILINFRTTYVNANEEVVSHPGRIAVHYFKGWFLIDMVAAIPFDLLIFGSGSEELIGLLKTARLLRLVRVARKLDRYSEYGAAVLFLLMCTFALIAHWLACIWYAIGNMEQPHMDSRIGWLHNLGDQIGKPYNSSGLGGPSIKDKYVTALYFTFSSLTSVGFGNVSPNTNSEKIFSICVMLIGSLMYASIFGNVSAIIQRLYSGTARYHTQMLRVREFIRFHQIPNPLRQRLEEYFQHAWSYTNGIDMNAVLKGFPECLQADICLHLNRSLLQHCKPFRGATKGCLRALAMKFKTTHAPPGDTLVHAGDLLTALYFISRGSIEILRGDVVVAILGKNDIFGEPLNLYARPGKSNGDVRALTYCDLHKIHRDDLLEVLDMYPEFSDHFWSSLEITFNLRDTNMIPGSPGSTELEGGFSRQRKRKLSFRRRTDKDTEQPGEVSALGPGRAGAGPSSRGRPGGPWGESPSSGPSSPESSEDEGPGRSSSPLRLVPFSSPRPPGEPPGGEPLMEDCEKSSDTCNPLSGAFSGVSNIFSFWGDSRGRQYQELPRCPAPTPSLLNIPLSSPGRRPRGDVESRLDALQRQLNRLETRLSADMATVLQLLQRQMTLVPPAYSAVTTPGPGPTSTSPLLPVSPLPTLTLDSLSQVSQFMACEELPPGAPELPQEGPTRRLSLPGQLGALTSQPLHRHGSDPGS
Experimental: FIG. 7: Expression of the human potassium channel HERG1 in the triple mutant Δtrk1Δtrk2Δtok1 in DPM-HIS/-TRP 5 mM KCl medium in 96-well ELISA plates in the presence of 0.5 mM CsCl as activator.
as §1, with “The” for “FIG. 9: Growth of the Saccharomyces cerevisiae wild-type strain in DPM-HIS/-TRP 5 mM KCl medium in 96-well ELISA plates in the presence of 0.5 mM CsCl. The”, “TROPIX. The values correspond to the average of in each case 4 measurements±SD. The two different assays were carried out independently of each other on two different days.” for “TROPIX.”
FIG. 8: Expression of the human potassium channel HERG1 in the triple mutant Δtrk1Δtrk2Δtok1 in DPM-HIS 5 mM KCl medium in 96-well ELISA plates in the presence of 0.5 mM CsCl as activator.
The various inhibitors were employed at a final concentration of in each case 30 μM. The cell density was measured after 38 hours' growth (density of the starter culture: 0.03 OD620) via determination of the optical density at a wavelength of 620 nm. The values corresponded to the average of in each case 4 measurements±SD.
All growth assays in the triple mutant Δtrk1Δtrk2Δtok1 were carried out in growth medium DPM (defined potassium medium) at the pH and the potassium concentration stated in each case.
as §2

[4] = 30 μM, wild-type cells, DPM -HIS/-TRP, 0.5 mM CsCl, 24 hours growth, TROPIX kit, ASSAY 1
[5] = 30 μM, wild-type cells, DPM -HIS/-TRP, 0.5 mM CsCl, 24 hours growth, TROPIX kit, ASSAY 1, mean of 4
[6] = 30 μM, wild-type cells, DPM -HIS/-TRP, 0.5 mM CsCl, 24 hours growth, TROPIX kit, ASSAY 2
[7] = 30 μM, wild-type cells, DPM -HIS/-TRP, 0.5 mM CsCl, 24 hours growth, TROPIX kit, ASSAY 2, mean of 4

| SMILES | Exp. 1 (LacZ luminescence), ASSAY 1 [1, 4] | Exp. 2 (LacZ luminescence), ASSAY 1 [1, 4] | Exp. 3 (LacZ luminescence), ASSAY 1 [1, 4] | Exp. 4 (LacZ luminescence), ASSAY 1 [1, 4] | Mean growth (LacZ luminescence), ASSAY 1 [1, 5] | Exp. 1 (LacZ luminescence), ASSAY 2 [1, 6] | Exp. 2 (LacZ luminescence), ASSAY 2 [1, 6] | Exp. 3 (LacZ luminescence), ASSAY 2 [1, 6] | Exp. 4 (LacZ luminescence), ASSAY 2 [1, 6] | Mean growth (LacZ luminescence), ASSAY 2 [1, 7] | specificity of inhibition of the human HERG1 channel (comparison with wild-type strain) [1] | toxic effect on yeast cells (Saccharomyces cerevisiae) ([2]; FIG. 10) | growth OD 620 nm, 5 mM KCl, measurement 1 [2] | growth OD 620 nm, 5 mM KCl, measurement 2 [2] | growth OD 620 nm, 5 mM KCl, measurement 3 [2] | growth OD 620 nm, 5 mM KCl, measurement 4 [2] | 5 mM KCl (average growth, OD 620 nm) [2] | growth OD 620 nm, 80 mM KCl, measurement 1 ([2]; 80 mM KCl) | growth OD 620 nm, 80 mM KCl, measurement 2 ([2]; 80 mM KCl) | growth OD 620 nm, 80 mM KCl, measurement 3 ([2]; 80 mM KCl) | other results |
| --- | --- | --- | --- | --- | --- | --- | --- | --- | --- | --- | --- | --- | --- | --- | --- | --- | --- | --- | --- | --- | --- |
| CCOC(=O)N1CCC(=C2c3ccc(Cl)cc3CCc3cccnc32)CC1 [Loratadine, ethyl 4-(8-chloro-5,6-dihydro-11H-benzo[5,6]cyclohepta[1,2-b]pyridin-11-ylidene)-1-piperidinecarboxytate] | 4905 | 5141 | 1857 | 3266 | 3792.25 | 3553 | 1965 | 3590 | 2478 | 2896.5 |  |  |  |  |  |  |  |  |  |  |  |
| O=C1NCCN1CCN1CCC(c2cn(-c3ccc(F)cc3)c3ccc(Cl)cc23)CC1 [Sertindole, 1-(2-[4-[5-chloro-1-(4-fluorophenyl)-1H-indol-3-yl]-1-piperidinyl]ethyl)-2-imidazolidinone] | 4165 | 2099 | 4588 | 3069 | 3480.25 | 3992 | 3076 | 3972 | 2782 | 3455.5 | specific inhibitors |  |  |  |  |  |  |  |  |  |  |
| CC(C)(C)c1ccc(C(O)CCCN2CCC(C(O)(c3ccccc3)c3ccccc3)CC2)cc1 (stereo not drawn) [Terfenadine, α-(4-tert-butylphenyl)-4-(α-hydroxy-αphenylbenzyl)-1-piperidinebutanol] |  |  |  |  |  |  |  |  |  |  |  |  |  |  |  |  |  |  |  |  | Exp. 1 (LacZ luminescence), ASSAY 1 [1]: 4497; Exp. 1 (LacZ luminescence), ASSAY 2 [1]: 3439; Exp. 2 (LacZ luminescence), ASSAY 1 [1]: 4481; Exp. 2 (LacZ luminescence), ASSAY 2 [1]: 3795; Exp. 3 (LacZ luminescence), ASSAY 1 [1]: 5058; Exp. 3 (LacZ luminescence), ASSAY 2 [1]: 3698; Exp. 4 (LacZ luminescence), ASSAY 1 [1]: 5381; Exp. 4 (LacZ luminescence), ASSAY 2 [1]: 3388; Mean growth (LacZ luminescence), ASSAY 1 [1]: 4854.25; Mean growth (LacZ luminescence), ASSAY 2 [1]: 3580 |
| CN(C)CCOC(c1ccccc1)c1ccccc1 [Diphenhydramine] | 2806 | 3161 | 4178 | 4884 | 3757.25 | 3468 | 2980 | 3062 | 3581 | 3267.75 |  |  |  |  |  |  |  |  |  |  |  |
| O=C1Cc2cc(CCN3CCN(c4nsc5ccccc45)CC3)c(Cl)cc2N1 [Ziprasidone, 5-(2-[4-(1,2-benzisothiazol-3-yl)piperazino]-ethyl)-6-chloro-1,3-dihydro-2H-indol-2-one] | 55.32 | 70.29 | 70.3 | 77.18 | 68.2725 | 62.52 | 44.3 | 49.71 | 51.87 | 52.1 | rather unspecific inhibitors | has a toxic effect | 0.943 | 0.877 | 0.675 | 0.701 | 0.799 | 0.836 | 0.681 | 0.717 | effect on growth of yeast cells at higher potassium concentrations ([2]; 80 mM KCl, FIG. 10): inhibits the growth; growth OD 620 nm, 80 mM KCl, measurement 4 ([2]; 80 mM KCl): 0.606; 80 mM KCl (average growth, OD 620 nm) ([2]; 80 mM KCl): 0.7 and 0.71; Exp. 1 (growth, OD620 nm) [3]: 0.006; Exp. 2 (growth, OD620 nm) [3]: 0.01; Exp. 3 (growth, OD620 nm) [3]: 0.012; Exp. 4 (growth, OD620 nm) [3]: 0.015; Mean growth (OD620 nm) [3]: 0.01075; complementation of the growth deficiency of the triple mutant by human HERG1 in the presence of the substance [3]: can no longer complement |
| O=c1[nH]c2ccccc2n1C1CCN(CCCC(c2ccc(F)cc2)c2ccc(F)cc2)CC1 [Pimozide, 1-(4,4-bis(P-fluorophenyl)butyl)-4-(2-oxo-1-benzimidazolinyl)-piperidine] | 357.4 | 747.9 | 804.6 | 585.4 | 623.825 | 905 | 2176 | 496.5 | 573.4 | 1037.725 |  | no generally toxic effect | 0.904 | 0.823 | 0.305 | 0.614 | 0.6615 | 3.673 | 3.505 | 3.46 and 3.48 | growth OD 620 nm, 80 mM KCl, measurement 4 ([2]; 80 mM KCl): 3.441; 80 mM KCl (average growth, OD 620 nm) ([2]; 80 mM KCl): 3.5 and 3.52; Exp. 1 (growth, OD620 nm) [3]: 0.004; Exp. 2 (growth, OD620 nm) [3]: 0.004; Exp. 3 (growth, OD620 nm) [3]: 0.005; Exp. 4 (growth, OD620 nm) [3]: 0.005; Mean growth (OD620 nm) [3]: 0.0045; complementation of the growth deficiency of the triple mutant by human HERG1 in the presence of the substance [3]: can no longer complement |
